Laboratory results: patent US10647686B2, “Substituted pyrimidines for preventing or treating cancer and inflammatory diseases” (KOREA RESEARCH INSTITUTE OF CHEMICAL TECHNOLOGY, priority 2016, dated 2020)

What was measured:
[1] = biological target: DRAK1 (Homo sapiens (Human), UniProt Q9UEE5); assay: DRAK1 kinase activity inhibition (ADP-Glo, MRCL3 peptide substrate); type: biochemical
Description: (§1) DRAK1 and DRAK2 recombinant proteins were purchased from SignalChem Inc. To measure the kinase enzyme activity, the ADP-Glo™ kit provided by Promega Inc. was used. Buffer A used in the kinase reaction was composed of 60 mM Tris-Cl (pH 7.5), 30 mM MgCl2 and 0.15% BSA. Just before the experiment, 1 mM DTT was prepared by diluting 1 M solution and added thereto.
(§2) To measure the DRAK1 and DRAK2 activity, the substrate MRCL3 peptide and ATP were mixed with the enzymes. After an appropriate period of time, the reaction product ADP was quantitatively analyzed.
(§3) The buffer solution A was used to make a 3× substrate solution of 3× concentration so that the final concentrations of ATP and MRCL3 peptides were 1 uM, respectively, and 2.5 μl of each solution was dispensed into Optiplate 384 (perkin-elmer) microplate.
(§4) The final concentrations of ATP and MRCL3 peptide were made to be 1 uM respectively by using buffer A, followed by preparing a 3× substrate solution. The prepared substrate solution was distributed in Optiplate 384 (Perkin-Elmer) microplate (2.5 ul/well). Then, the compounds of Examples 1˜39 and the compounds of Comparative Examples 1-6, whose concentrations were tripled by the final concentration were distributed thereto (2.5 ul/well). Lastly, DRAK1 or DRAK2 enzyme solution, properly diluted by using buffer A, was added thereto (2.5 ul/well). Centrifugation was performed at 800 rpm for 1 minute, and then enzyme reaction was induced at 30° C.
(§5) 2 hours later, the enzyme reaction was terminated. To eliminate residual ATP, ADP-Glo™ reagent contained in ADP-Glo™ was added to each well at the concentration of 7.5 ul, which was the same amount as the sum of the previously added reagents, followed by centrifugation at the same RPM and time as the above. Additional reaction was induced at room temperature for 40 minutes. To convert the ADP produced by the kinase activity to ATP, 15 ul of kinase detection buffer was added to each well, followed by centrifugation. Five minutes after the centrifugation was completed, the luminescence value of the reaction product was determined using Envision, and the enzyme activity inhibition effect of the compound was measured. Then, IC50 of each compound was determined using Prism program.
(§6) The compounds of Example 1 and Example 19 were used as the experimental group and the compound of Comparative Example 6 was used as the control.

[2] = biological target: DRAK2 (Homo sapiens (Human), UniProt O94768); assay: DRAK2 kinase activity inhibition (ADP-Glo, MRCL3 peptide substrate); type: biochemical; settings: for DRAK2 selectivity (DRAK2 versus DRAK1) / DRAK2 IC50 compared with Comparative Examples 7 and 8 (n is 0): result in words; for DRAK2 selectivity (DRAK2 versus DRAK1): from Table 4; for DRAK2 IC50 compared with Comparative Examples 7 and 8 (n is 0): from Table 5
Chain of DRAK2 (O94768 whole entry): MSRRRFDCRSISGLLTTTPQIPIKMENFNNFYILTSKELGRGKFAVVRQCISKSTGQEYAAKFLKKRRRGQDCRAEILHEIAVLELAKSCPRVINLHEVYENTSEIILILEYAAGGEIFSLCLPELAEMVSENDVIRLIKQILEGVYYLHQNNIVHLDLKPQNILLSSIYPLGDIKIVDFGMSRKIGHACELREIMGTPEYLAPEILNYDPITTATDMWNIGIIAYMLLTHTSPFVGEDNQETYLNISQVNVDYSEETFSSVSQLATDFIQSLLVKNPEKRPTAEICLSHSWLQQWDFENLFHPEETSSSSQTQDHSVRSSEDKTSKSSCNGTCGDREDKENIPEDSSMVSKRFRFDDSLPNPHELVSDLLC
Description: as §1, §2, §3, §4, §5, §6
To evaluate DRAK2 inhibition activity of the compound represented by formula 1 according to the number of n, the experiment was performed with the compounds of Example 1, Example 19, Example 40, Comparative Example 7 and W Comparative Example 8 by the same manner as described in Experimental Example 1, leading to the measurement of IC50 to DRAK2.

[3] = Table 3, recombinant enzyme, 1 uM ATP, 1 uM MRCL3 peptide, 30° C., 2 hours
[4] = Table 4, Experimental Example 2, DRAK2 selectivity evaluation
[5] = Table 5, Experimental Example 3, according to the number of n

Chain of DRAK1 (Q9UEE5 whole entry): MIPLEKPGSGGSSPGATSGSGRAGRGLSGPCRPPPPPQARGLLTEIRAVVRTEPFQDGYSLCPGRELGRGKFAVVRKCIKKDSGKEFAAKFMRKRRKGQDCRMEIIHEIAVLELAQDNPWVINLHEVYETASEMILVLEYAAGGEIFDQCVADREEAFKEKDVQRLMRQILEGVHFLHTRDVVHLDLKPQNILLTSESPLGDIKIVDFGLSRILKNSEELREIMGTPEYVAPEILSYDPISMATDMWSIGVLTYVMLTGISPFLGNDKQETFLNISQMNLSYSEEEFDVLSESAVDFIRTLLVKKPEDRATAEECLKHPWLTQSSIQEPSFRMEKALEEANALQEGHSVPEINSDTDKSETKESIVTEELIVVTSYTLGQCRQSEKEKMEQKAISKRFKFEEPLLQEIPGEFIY

Row | SMILES | IC50 [1, 3] | IC50 [1, 4] | IC50 [2, 3] | IC50 [2, 4] | IC50 [2, 5] | DRAK2 selectivity (DRAK2 versus DRAK1) [2] | DRAK2 IC50 compared with Comparative Examples 7 and 8 (n is 0) [2]
1 | NCCCNc1nc(Nc2ccc(Cl)cc2)ncc1Cl [Example 1, N4-(3-aminopropyl)-5-chloro-N2-(4-chlorophenyl)pyrimidine-2,4-diamine] | 410 nM | 410 nM | 38 nM | 38 nM | 32 nM | excellent DRAK2 selectivity | significantly lower IC50
2 | NCCCNc1nc(Nc2ccc(Cl)c(Cl)c2)ncc1Cl [Example 8, N4-(3-aminopropyl)-5-chloro-N2-(3,4-dichlorophenyl)pyrimidine-2,4-diamine] | 310 nM | – | 59 nM | – | – | – | –
3 | NCCCNc1nc(Nc2ccc(N3CCNCC3)cc2)ncc1Cl [Example 25, N4-(3-aminopropyl)-5-chloro-N2-(4-(piperazine-1-yl)phenyl)pyrimidine-2,4-diamine] | 30 nM | – | 22 nM | – | – | – | –
4 | Cc1cnc(Nc2ccc(Cl)cc2)nc1NCCCN [Example 19, N4-(3-aminopropyl)-N2-(4-chlorophenyl)-5-methylpyrimidine-2,4-diamine] | 710 nM | 710 nM | 23 nM | 23 nM | 23 nM | excellent DRAK2 selectivity | significantly lower IC50
5 | NCCCNc1nc(Nc2ccc(Cl)cc2)ncc1Br [Comparative Example 6, reference compound] | 40 nM | 40 nM | 27 nM | 27 nM | – | displayed both DRAK1 and DRAK2 inhibition activity | –
6 | CC(C)c1ccc(Nc2ncc(Cl)c(NCCCN)n2)cc1 [Example 3, N4-(3-aminopropyl)-5-chloro-N2-(4-isopropylphenyl)pyrimidine-2,4-diamine] | 240 nM | – | 11 nM | – | – | – | –
7 | NCCCCNc1nc(Nc2ccc(Cl)cc2)ncc1Cl [Example 40, N4-(4-n-aminobutyl)-N2-(4-chlorophenyl)-5-chloropyrimidine-2,4-diamine] | 480 nM | – | 47 nM | – | 47 nM | – | significantly lower IC50
8 | NCCCNc1nc(Nc2ccc(Br)cc2)ncc1Cl [Example 17, N4-(3-aminopropyl)-N2-(4-bromophenyl)-5-chloropyrimidine-2,4-diamine] | 390 nM | – | 23 nM | – | – | – | –
9 | NCCCNc1nc(Nc2ccc(Br)c(C(F)(F)F)c2)ncc1Cl [Example 16, N4-(3-aminopropyl)-N2-(4-bromo-3-(trifluoromethyl)phenyl)-5-chloropyrimidine-2,4-diamine] | 740 nM | – | 34 nM | – | – | – | –
10 | NCCCNc1nc(Nc2ccc(F)c(C(F)(F)F)c2)ncc1Cl [Example 15, N4-(3-aminopropyl)-5-chloro-N2-(4-fluoro-3-(trifluoromethyl)phenyl)pyrimidine-2,4-diamine] | 180 nM | – | 26 nM | – | – | – | –
11 | CCc1ccc(Nc2ncc(Cl)c(NCCCN)n2)cc1 [Example 11, N4-(3-aminopropyl)-5-chloro-N2-(4-ethylphenyl)pyrimidine-2,4-diamine] | 370 nM | – | 44 nM | – | – | – | –
12 | NCCCNc1nc(Nc2ccc(Oc3ccccc3)cc2)ncc1Cl [Example 10, N4-(3-aminopropyl)-5-chloro-N2-(4-phenoxyphenyl)pyrimidine-2,4-diamine] | 180 nM | – | 26 nM | – | – | – | –
13 | Cc1ccc(Nc2ncc(Cl)c(NCCCN)n2)cc1Cl [Example 6, N4-(3-aminopropyl)-5-chloro-N2-(3-chloro-4-methylphenyl)pyrimidine-2,4-diamine] | 220 nM | – | 24 nM | – | – | – | –
14 | NCCCNc1nc(Nc2ccc(S(=O)(=O)c3ccc([N+](=O)[O-])cc3)cc2)ncc1Cl [Example 13, N4-(3-aminopropyl)-5-chloro-N2-(4-(4-nitrophenylsulfonyl)phenyl)pyrimidine-2,4-diamine] | 110 nM | – | 14 nM | – | – | – | –
15 | NCCCNc1nc(Nc2ccc(F)cc2)ncc1Cl [Example 9, N4-(3-aminopropyl)-5-chloro-N2-(4-fluorophenyl)pyrimidine-2,4-diamine] | 290 nM | – | 19 nM | – | – | – | –
16 | CCCCCCc1ccc(Nc2ncc(Cl)c(NCCCN)n2)cc1 [Example 12, N4-(3-aminopropyl)-5-chloro-N2-(4-hexylphenyl)pyrimidine-2,4-diamine] | 1900 nM | – | 56 nM | – | – | – | –
17 | NCCCNc1nc(Nc2ccc3c(c2)CCCC3=O)ncc1Cl [Example 24, 6-(4-(3-aminopropylamino)-5-chloropyrimidine-2-ylamino)-3,4-dihydronaphthalene-1(2H)-one] | 230 nM | – | 19 nM | – | – | – | –
